Reference: the OligoGym collection
Several values for one entry are separate records, joined by “and”; a condition that tells them apart may be missing. Equal values may be shown once. HELM strings list units from the 5' end as sugar, base in round brackets, then linkage (d deoxyribose, r ribose, m 2'-O-methyl, p phosphodiester). Methylation of C is not given here. [moe] = 2'-O-(2-methoxyethyl) (MOE); [cEt] = constrained ethyl (cEt); [sp] = phosphorothioate linkage

Molecular target: HBV
Conditions: ASO, HepG2, 0.07 µM

| Substance | target mRNA inhibition |
| --- | --- |
| RNA1{[moe](G)[sp].[moe](T)[sp].[moe](T)[sp].[moe](C)[sp].d(C)[sp].d(G)[sp].d(C)[sp].d(A)[sp].d(G)[sp].d(T)[sp].d(A)[sp].d(T)[sp].d(G)[sp].[moe](G)[sp].[moe](A)[sp].[moe](T)[sp].[moe](C)}$$$$V2.0 | 52% and 43% |
| RNA1{[moe](G)[sp].[moe](T)[sp].[moe](T)[sp].[moe](C)[sp].d(C)[sp].d(G)[sp].d(C)[sp].d(A)[sp].d(G)[sp].d(T)[sp].d(A)[sp].d(T)[sp].d(G)[sp].[moe](G)[sp].[moe](A)[sp].[moe](T)}$$$$V2.0 | 57% and 45% |
| RNA1{[moe](G)[sp].[moe](T)[sp].d(G)[sp].d(A)[sp].d(A)[sp].d(G)[sp].d(C)[sp].d(G)[sp].d(A)[sp].d(A)[sp].d(G)[sp].[moe](T)[sp].[moe](G)[sp].[moe](C)[sp].[moe](A)[sp].[moe](C)}$$$$V2.0 | 68% and 60% |
| RNA1{[moe](G)[sp].[moe](T)[sp].d(G)[sp].d(C)[sp].d(A)[sp].d(G)[sp].d(A)[sp].d(G)[sp].d(G)[sp].d(T)[sp].d(G)[sp].[moe](A)[sp].[moe](A)[sp].[moe](G)[sp].[moe](C)[sp].[moe](G)[sp].[moe](A)}$$$$V2.0 | 70% and 66% |
| RNA1{[moe](G)[sp].[moe](T)[sp].d(T)[sp].d(C)[sp].d(C)[sp].d(G)[sp].d(C)[sp].d(A)[sp].d(G)[sp].d(T)[sp].d(A)[sp].[moe](T)[sp].[moe](G)[sp].[moe](G)[sp].[moe](A)[sp].[moe](T)}$$$$V2.0 | 56% and 55% |
| RNA1{[moe](T)[sp].[cEt](A)[sp].d(T)[sp].d(G)[sp].d(C)[sp].d(C)[sp].d(T)[sp].d(A)[sp].d(C)[sp].d(A)[sp].d(G)[sp].d(C)[sp].[cEt](C)[sp].[moe](T)[sp].[cEt](C)[sp].[moe](C)}$$$$V2.0 | 54% and 51% |
| RNA1{[moe](T)[sp].[cEt](C)[sp].[cEt](C)[sp].d(A)[sp].d(C)[sp].d(C)[sp].d(A)[sp].d(C)[sp].d(G)[sp].d(A)[sp].d(G)[sp].d(T)[sp].d(C)[sp].[cEt](T)[sp].[cEt](A)[sp].[moe](G)}$$$$V2.0 | 54% and 44% |
| RNA1{[moe](T)[sp].[cEt](C)[sp].d(C)[sp].d(A)[sp].d(C)[sp].d(C)[sp].d(A)[sp].d(C)[sp].d(G)[sp].d(A)[sp].d(G)[sp].d(T)[sp].[cEt](C)[sp].[moe](T)[sp].[cEt](A)[sp].[moe](G)}$$$$V2.0 | 71% and 53% |
| RNA1{[moe](T)[sp].[cEt](G)[sp].[cEt](A)[sp].d(G)[sp].d(G)[sp].d(C)[sp].d(C)[sp].d(C)[sp].d(A)[sp].d(C)[sp].d(T)[sp].d(C)[sp].d(C)[sp].[cEt](C)[sp].[cEt](A)[sp].[moe](T)}$$$$V2.0 | 56% and 80% |
| RNA1{[moe](T)[sp].[cEt](G)[sp].d(A)[sp].d(A)[sp].d(G)[sp].d(C)[sp].d(G)[sp].d(A)[sp].d(A)[sp].d(G)[sp].d(T)[sp].d(G)[sp].[cEt](C)[sp].[moe](A)[sp].[cEt](C)[sp].[moe](A)}$$$$V2.0 | 76% and 71% |
| RNA1{[moe](T)[sp].[cEt](T)[sp].d(A)[sp].d(T)[sp].d(G)[sp].d(C)[sp].d(C)[sp].d(T)[sp].d(A)[sp].d(C)[sp].d(A)[sp].d(G)[sp].[cEt](C)[sp].[moe](C)[sp].[cEt](T)[sp].[moe](C)}$$$$V2.0 | 50% and 56% |
| RNA1{[moe](T)[sp].[cEt](T)[sp].d(C)[sp].d(C)[sp].d(G)[sp].d(C)[sp].d(A)[sp].d(G)[sp].d(T)[sp].d(A)[sp].d(T)[sp].d(G)[sp].[cEt](G)[sp].[moe](A)[sp].[cEt](T)[sp].[moe](C)}$$$$V2.0 | 50% and 39% |
| RNA1{[moe](T)[sp].[cEt](T)[sp].d(T)[sp].d(A)[sp].d(T)[sp].d(G)[sp].d(C)[sp].d(C)[sp].d(T)[sp].d(A)[sp].d(C)[sp].d(A)[sp].[cEt](G)[sp].[moe](C)[sp].[cEt](C)[sp].[moe](T)}$$$$V2.0 | 8% and 1% |
